Assay results reported in the NIST ThermoML archive (doi:10.1021/je5008372).

How the values were obtained:
[1] = mn = molality of the nth substance listed, in mol/kg; conditions: 86.8 kPa, Liquid; for viscosity: Capillary tube (Ostwald / Ubbelohde) method; for speed of sound: Sing-around technique in a fixed-path interferometer; for mass density: Vibrating tube method
[2] = refractive index (Na D-line) (dimensionless); mn = molality of the nth substance listed, in mol/kg; conditions: 86.8 kPa, Liquid, Standard Abbe refractometry

CC(=O)Oc1ccccc1C(=O)O [2-acetoxybenzoic acid] + CC#N
Conditions | mass density, [1] [kg/m3] | refractive index, [2] | speed of sound, [1] [m/s] | viscosity, [1] [mPa·s]
288.15 K, m1 = 0.0402 | 789.756 | 1.3467 | 1319.9 | 0.394
288.15 K, m1 = 0.0834 | 792.285 | 1.3476 | 1320.3 | 0.398
288.15 K, m1 = 0.11 | 793.822 | 1.3483 | 1320.6 | 0.402
288.15 K, m1 = 0.1394 | 795.495 | 1.349 | 1320.8 | 0.405
288.15 K, m1 = 0.1708 | 797.242 | 1.3498 | 1321.1 | 0.408
288.15 K, m1 = 0.2076 | 799.277 | 1.3505 | 1321.4 | 0.412
288.15 K, m1 = 0.2453 | 801.312 | 1.3513 | 1321.8 | 0.416
288.15 K, m1 = 0.2705 | 802.661 | 1.3519 | 1322 | 0.419
288.15 K, m1 = 0.3006 | 804.272 | 1.3527 | 1322.2 | 0.422
298.15 K, m1 = 0.0402 | 778.992 | 1.3422 | 1279.3 | 0.349
298.15 K, m1 = 0.0834 | 781.508 | 1.3431 | 1279.7 | 0.353
298.15 K, m1 = 0.11 | 783.035 | 1.3439 | 1279.9 | 0.355
298.15 K, m1 = 0.1394 | 784.705 | 1.3446 | 1280.2 | 0.358
298.15 K, m1 = 0.1708 | 786.446 | 1.3453 | 1280.4 | 0.362
298.15 K, m1 = 0.2076 | 788.483 | 1.3462 | 1280.7 | 0.365
298.15 K, m1 = 0.2453 | 790.515 | 1.347 | 1281 | 0.369
298.15 K, m1 = 0.2705 | 791.87 | 1.3477 | 1281.2 | 0.371
298.15 K, m1 = 0.3006 | 793.487 | 1.3484 | 1281.5 | 0.375
308.15 K, m1 = 0.0402 | 768.176 | 1.3378 | 1239 | 0.316
308.15 K, m1 = 0.0834 | 770.675 | 1.3388 | 1239.3 | 0.319
308.15 K, m1 = 0.11 | 772.198 | 1.3397 | 1239.5 | 0.322
308.15 K, m1 = 0.1394 | 773.857 | 1.3404 | 1239.7 | 0.325
308.15 K, m1 = 0.1708 | 775.597 | 1.3412 | 1240 | 0.328
308.15 K, m1 = 0.2076 | 777.624 | 1.3423 | 1240.3 | 0.331
308.15 K, m1 = 0.2453 | 779.658 | 1.3431 | 1240.5 | 0.334
308.15 K, m1 = 0.2705 | 781.016 | 1.3438 | 1240.8 | 0.337
308.15 K, m1 = 0.3006 | 782.624 | 1.3446 | 1241 | 0.34
318.15 K, m1 = 0.0402 | 757.205 | 1.3333 | 1198.8 | 0.292
318.15 K, m1 = 0.0834 | 759.697 | 1.3345 | 1199.2 | 0.295
318.15 K, m1 = 0.11 | 761.21 | 1.3352 | 1199.3 | 0.297
318.15 K, m1 = 0.1394 | 762.869 | 1.3359 | 1199.5 | 0.3
318.15 K, m1 = 0.1708 | 764.615 | 1.3367 | 1199.7 | 0.303
318.15 K, m1 = 0.2076 | 766.635 | 1.3377 | 1199.9 | 0.306
318.15 K, m1 = 0.2453 | 768.667 | 1.3388 | 1200.2 | 0.309
318.15 K, m1 = 0.2705 | 770.017 | 1.3395 | 1200.4 | 0.311
318.15 K, m1 = 0.3006 | 771.63 | 1.3403 | 1200.7 | 0.314
